Like-named read-outs stand apart in the source and are kept apart here.
Experiments:
AGTR1 = biological target: T1, AGTR1 (Homo sapiens, UniProt P30556); assay: DiscoveRx β-arrestin2 recruitment assay (enzyme complementation, Pathunter CHO-K1 AGTR1 β-arrestin cell line); type: cell-based
T1 construct: host or cells: Pathunter CHO-K1 AGTR1 β-arrestin cell line (CHO-K1)
T1 sequence (P30556 1-359): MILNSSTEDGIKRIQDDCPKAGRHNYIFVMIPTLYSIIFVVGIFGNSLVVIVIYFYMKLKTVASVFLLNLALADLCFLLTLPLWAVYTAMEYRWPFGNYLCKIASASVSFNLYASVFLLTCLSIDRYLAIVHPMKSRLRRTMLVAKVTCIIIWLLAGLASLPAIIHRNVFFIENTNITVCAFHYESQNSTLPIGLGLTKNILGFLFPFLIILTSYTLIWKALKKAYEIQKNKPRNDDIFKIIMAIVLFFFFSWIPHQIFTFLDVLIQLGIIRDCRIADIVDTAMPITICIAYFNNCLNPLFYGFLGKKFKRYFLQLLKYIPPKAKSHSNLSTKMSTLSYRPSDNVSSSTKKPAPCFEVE
Procedure, shortened: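 Chemiluminescent enzyme-complementation read-out of β-arrestin2 recruitment to AGTR1 in engineered CHO-K1 cells after 90 min compound exposure at 37° C. Values are 4-parameter logistic EC50s in agonist mode, IC50s in antagonist mode, with efficacy relative to the maximal All response.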

hAT1R [1] = biological target: T2, hAT1R (Homo sapiens, UniProt P30556); assay: BRET β-arrestin2 biosensor assay, higher receptor expression (hAT1R 5 ng/well), HEK293 cells; type: cell-based; conditions: for EC50: High AT1R Expression
T2 sequence (P30556 1-359): T1 sequence (P30556 1-359)

hAT1R [2] = biological target: T2, hAT1R; assay: BRET Gq biosensor assay, agonist response, HEK293 cells; type: cell-based; conditions: section of the 42nd table directly before the BRET P63 section
Procedure, shortened: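 Agonist EC50 derived from a 4-parameter fit of BRET2 ratio (GFP 515 nm/Rluc 410 nm), scaled between unstimulated control and maximal AngII response. Readings taken 5 min after compound addition at room temperature, with 2 μM coelenterazine, in HEK293 cells expressing hAT1R, Gαq-Rluc, Gβ1 and GFP-Gγ1 (transfected two days earlier).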

hAT1R [3] = biological target: T2, hAT1R; assay: cell-based; conditions: agonist mode; for EC50: read-out: BRET P63 EC50
[4] = DiscoveRx β-arrestin2 recruitment
[5] = DiscoveRx β-arrestin2 recruitment, maximal response

Row | Compound | EC50 (AGTR1; [4]) | DiscoveRx β-arrestin2 Ymax (%) (AGTR1; [5]) | BRET β-Arrestin2 High AT1R Expression Ymax (%) (hAT1R [1]) | EC50 (hAT1R [1]) | EC50 (hAT1R [2]) | EC50 (hAT1R [3]) | BRET P63 Ymax (hAT1R [3]) | DiscoveRx β-arrestin2 Ymax (%) (AGTR1; [4]) | EC50 (AGTR1)
1 | CCCCC(=O)N(Cc1ccc(-c2cc(-c3ccccn3)ccc2-c2nn[nH]n2)cc1)C1(C(=O)O)CCCCC1 [Example 293, 1-(N-((5′-(Pyridin-2-yl)-2′-(2H-tetrazol-5-yl)-[1,1′-biphenyl]-4-yl)methyl)pentanamido)cyclohexanecarboxylic acid] | 187 nM | 40.4% | 70.2% | 136 nM | 1240 nM | > 100000 nM | – | – | –
2 | CCCCC(=O)N(Cc1ccc(-c2cc(-c3cccc(C)n3)ccc2-c2nn[nH]n2)cc1)C1(C(=O)O)CCCCC1 [Example 294] | 87.3 nM | 28.9% | 24.7% | 150 nM | 427 nM | > 100000 nM | – | – | –
3 | CCCCC(=O)N(Cc1ccc(-c2cc(-c3cccc(OC)n3)ccc2-c2nn[nH]n2)cc1)C1(C(=O)O)CCCCC1 [Example 296] | 128 nM | 41.8% | 79.9% | 68.8 nM | 619 nM | 307 nM | 6.9% | – | –
4 | CCCCC(=O)N(Cc1ccc(-c2cc(N3CCCC(C)C3)ccc2-c2nn[nH]n2)cc1)C1(C(=O)O)CCCCC1 (stereo not drawn) [Example 297, 1-(N-((5′-(3-methylpiperidin-1-yl)-2′-(2H-tetrazol-5-yl)-[1,1′-biphenyl]-4-yl)methyl)pentanamido)cyclohexanecarboxylic acid] | 142 nM | 30.5% | 74.5% | 327 nM | 621 nM | > 100000 nM | – | – | –
5 | CCCCC(=O)N(Cc1ccc(-c2cc(-c3ccccc3)ccc2-c2nn[nH]n2)cc1)C1(C(=O)O)CCN(c2ccccc2)CC1 [Example 298, 4-(N-((6′-(2H-Tetrazol-5-yl)-[1,1′:3′,1″-terphenyl]-4-yl)methyl)pentan-amido)-1-phenylpiperidine-4-carboxylic acid] | 278 nM | 31.3% | 68.8% | 270 nM | 958 nM | > 100000 nM | – | – | –
6 | CCCCc1nc(Cl)c(C(=O)O)n1Cc1ccc(-c2cc(-c3cccc4[nH]ccc34)ccc2-c2nn[nH]n2)cc1 [Example 392, 1-((5′-(1H-indol-4-yl)-2′-(2H-tetrazol-5-yl)-1,1,1′-biphenyll-4-yl)methyl)-2-butyl-4-chloro-1H-imidazole-5-carboxyimc acid] | 45.2 nM | 29.2% | 79.1% | 17.2 nM | 3320 nM | > 100000 nM | – | – | –
7 | CCCCC(=O)N(Cc1ccc(-c2cc(Oc3ccccc3)ccc2-c2nn[nH]n2)cc1)[C@H](C(=O)O)C(C)C [Example 435, (S)-3-Methyl-2-(N-((5′-phenoxy-2′-(2H-tetrazol-5-yl)-[1,1′-biphenyl]-4-yl)methyl)pentanamido)butanoic acid] | 1410 nM | – | 12.3% | 305 nM | > 100000 nM | – | – | 19.1% | –
8 | CCCCC(=O)N(Cc1ccc(-c2cc(Oc3cccnc3)ccc2-c2nn[nH]n2)cc1)[C@H](C(=O)O)C(C)C [Example 436] | 993 nM | – | 58.0% | 13600 nM | > 100000 nM | – | – | 31.2% | –
9 | CCCCC(=O)N(Cc1ccc(-c2cc(Oc3cccc(OC(F)(F)F)c3)ccc2-c2nn[nH]n2)cc1)[C@H](C(=O)O)C(C)C [Example 437] | 3920 nM | – | 16.4% | 168 nM | > 100000 nM | – | – | 26.4% | –
10 | CCCCC(=O)N(Cc1ccc(-c2cc(-c3cc(F)cc(F)c3)ccc2-c2nn[nH]n2)cc1)[C@H](C(=O)O)C(C)C [Example 438, (S)-2-(N-((3″,5″-Difluoro-6′-(2H-tetrazol-5-yl)-[1,1′:3′,1″-terphenyl]-4-yl)methyl)pentanamido)-3-methylbutanoic acid] | 20.4 nM | – | 74.6% | 34.8 nM | 718 nM | – | – | 41.7% | –
11 | CCCCC(=O)N(Cc1ccc(-c2cc(-c3cccnc3OC)ccc2-c2nn[nH]n2)cc1)[C@H](C(=O)O)C(C)C [Example 439] | 108 nM | – | 35.8% | 117 nM | 386 nM | – | – | 26.4% | –
12 | CCCCC(=O)N(Cc1ccc(-c2cc(-c3ccc(NC(C)=O)cc3)ccc2-c2nn[nH]n2)cc1)[C@H](C(=O)O)C(C)C [Example 440] | 241 nM | – | 50.1% | 28300 nM | 582 nM | – | – | 13.6% | –
13 | CCCCC(=O)N(Cc1ccc(-c2cc(-c3ccc4ncccc4c3)ccc2-c2nn[nH]n2)cc1)[C@H](C(=O)O)C(C)C [Example 441] | 101 nM | – | 64.3% | 57 nM | > 100000 nM | – | – | 39.3% | –
14 | CCCCC(=O)N(Cc1ccc(-c2cc(-c3cnn(C)c3)ccc2-c2nn[nH]n2)cc1)[C@H](C(=O)O)C(C)C [Example 442] | 105 nM | – | 17.2% | 303 nM | > 100000 nM | – | – | 10.9% | –
15 | CCCCC(=O)N(Cc1ccc(-c2cc(-c3ccccn3)ccc2-c2nn[nH]n2)cc1)[C@H](C(=O)O)C(C)C [Example 443, (S)-3-Methyl-2-(N-((5′-(pyridin-2-yl)-2′-(2H-tetrazol-5-yl)-[1,1′-biphenyl]-4-yl)methyl)pentanamido)butanoic] | 124 nM | – | 83.9% | 153 nM | 77.1 nM | 365 nM | 4.5% | 36.5% | –
16 | CCCCC(=O)N(Cc1ccc(-c2cc(-c3cccc(C)n3)ccc2-c2nn[nH]n2)cc1)[C@H](C(=O)O)C(C)C [Example 444] | 125 nM | – | 46.5% | 147 nM | 258 nM | > 100000 nM | – | 36.3% | –
17 | CCCCC(=O)N(Cc1ccc(-c2cc(-c3cccc(OC)n3)ccc2-c2nn[nH]n2)cc1)[C@H](C(=O)O)C(C)C [Example 446] | 179 nM | – | 84.3% | 144 nM | > 100000 nM | 668 nM | 4.5% | 29.8% | –
18 | CCCCC(=O)N(Cc1ccc(-c2cc(N3CC(C)(C)c4ccccc43)ccc2-c2nn[nH]n2)cc1)[C@H](C(=O)O)C(C)C [Example 450] | 479 nM | – | 77.6% | 308 nM | 5260 nM | – | – | 23.1% | > 100000 nM
19 | CCCCC1=NC2(CCCC2)C(=O)N1Cc1ccc(-c2cc(-c3ccccc3)ccc2-c2nn[nH]n2)nc1 [Example 451, 3-((6-(4-(1H-Tetrazol-5-yl)-[1,1′-biphenyl]-3-yl)pyridin-3-yl)methyl)-2-butyl-1,3-diazaspiro[4.4]non-1-en-4-one] | 23.3 nM | – | 44.8% | 13700 nM | 4110 nM | – | – | 11.4% | –
20 | CCCCC1=NC2(CCCC2)C(=O)N1Cc1ccc(-c2cc(-c3ccccc3)ccc2-c2nn[nH]n2)cn1 [Example 452, 3-((5-(4-(2H-Tetrazol-5-yl)-[1,1′-biphenyl]-3-yl)pyridin-2-yl)methyl)-2-butyl-1,3-diazaspiro[4.4]non-1-en-4-one] | 8.1 nM | – | 84.6% | 33.8 nM | 44.8 nM | – | – | 36.1% | –
21 | CCCCC1=NC2(CCCC2)C(=O)N1Cc1ccc(-c2cc(-c3ccccc3)ccc2-c2noc(=O)[nH]2)cn1 [Example 453, 3-(3-(6-((2-Butyl-4-oxo-1,3-diazaspiro[4.4]non-1-en-3-yl)methyl)pyridin-3-yl)-[1,1′-biphenyl]-4-yl)-1,2,4-oxadiazol-5(4H)-one] | 31.4 nM | – | 95.9% | 13 nM | 24 nM | – | – | 59.5% | –
22 | CCCCC1=NC2(CCCC2)C(=O)N1Cc1ccc(-c2cc(Oc3ccccc3)ccc2-c2nnn[nH]2)cc1 [Example 454, 2-Butyl-3-((5′-phenoxy-2′-(1H-tetrazol-5-yl)-[1,1′-biphenyl]-4-yl)methyl)-1,3-diazaspiro[4.4]non-1-en-4-one] | 22.7 nM | – | 18.4% | 56.2 nM | > 100000 nM | – | – | 11.2% | –
